Laboratory results reported in patent US20140357713A1, “ANTIMICROBIAL COMPOUNDS AND METHODS OF USE” (NexMed Holdings, Inc., priority 2012, published 2014).
Read-outs that look alike come from different tables or passages of the source.

Key:
[1] = system: Staphulococcus aureus (ATCC 29213); experiment: Minimum inhibitory concentration (MIC) assay, Example 33; type: cell-based, Staphylococcus aureus; settings: Staphylococcus aureus
Outline: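 Following CLSI guidelines, each bacterial strain was taken from a twice-restreaked agar colony and suspended to 0.5 McFarland density. After a 1:100 dilution it was mixed 1:2 with 2-fold serially diluted compound in CAMHB. The MIC was read after incubation at 35 °C.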

Candida albicans = experiment: Extended time kill study, Example 34 (0 to 24 h); type: cell-based
Outline: (§1)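 Strain suspensions prepared as for MIC testing were mixed 1:1 with compound solution at higher multiples of MIC. Samples taken over 0 to 24 h were diluted in test medium and plated on agar, and colonies were counted after 24–48 h incubation.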

Aspergillus niger = experiment: Extended time kill study, Example 34 (0 to 24 h); type: cell-based
Outline: as §1

Pseudomonas aeruginosa = experiment: Extended time kill study, Example 34 (0 to 24 h); type: cell-based
Outline: as §1

Staphylococcus aureus = experiment: Extended time kill study, Example 34 (0 to 24 h); type: cell-based
Outline: as §1

In the case of `CCCCCCCCCCCCOC(=O)C(C)NCCN(CC)CC.Cl` (stereo not drawn) [Nex-62, Dodecyl 2-((2-(diethylamino)ethyl)amino)propanoate dihydrochloride], the MIC ([1]; ATCC29213, Table 19 summary, read-out: MIC) is reported as 25 µg/mL, the MIC ([1]; ATCC29213, n = 1, read-out: MIC S. aureus) is reported as 25 µg/mL and the MIC ([1]; ATCC29213, n = 2, read-out: MIC S. aureus) is reported as 25 µg/mL. For the same molecule, the “Viable counts in Log10 CFU/mL” value (Candida albicans; 1 × MIC, 1 h) was 5.75 Log10 CFU/mL, the “Viable counts in Log10 CFU/mL” value (Candida albicans; 1 × MIC, 2 h) was 5.78 Log10 CFU/mL and the “Viable counts in Log10 CFU/mL” value (Candida albicans; 1 × MIC, 4 h) was 6.04 Log10 CFU/mL. For the same molecule, the “Viable counts in Log10 CFU/mL” value (Candida albicans; 1 × MIC, 6 h) was 6.21 Log10 CFU/mL, the “Viable counts in Log10 CFU/mL” value (Candida albicans; 1 × MIC, 24 h) was >6 Log10 CFU/mL and the “Viable counts in Log10 CFU/mL” value (Candida albicans; 1 × MIC, 0 h) was 5.74 Log10 CFU/mL. The “Viable counts in Log10 CFU/mL” value (Candida albicans; 2 × MIC, 1 h) was 5.68 Log10 CFU/mL, the “Viable counts in Log10 CFU/mL” value (Candida albicans; 2 × MIC, 2 h) was 5.67 Log10 CFU/mL and the “Viable counts in Log10 CFU/mL” value (Candida albicans; 2 × MIC, 4 h) was 5.68 Log10 CFU/mL. The “Viable counts in Log10 CFU/mL” value (Candida albicans; 2 × MIC, 6 h) was 5.58 Log10 CFU/mL, the “Viable counts in Log10 CFU/mL” value (Candida albicans; 2 × MIC, 24 h) was >6 Log10 CFU/mL and the “Viable counts in Log10 CFU/mL” value (Candida albicans; 2 × MIC, 0 h) was 5.76 Log10 CFU/mL. For the same molecule, the “Viable counts in Log10 CFU/mL” value (Candida albicans; 4 × MIC, 1 h) was 5.32 Log10 CFU/mL, the “Viable counts in Log10 CFU/mL” value (Candida albicans; 4 × MIC, 2 h) was 5.33 Log10 CFU/mL and the “Viable counts in Log10 CFU/mL” value (Candida albicans; 4 × MIC, 4 h) was 5.00 Log10 CFU/mL. The “Viable counts in Log10 CFU/mL” value (Candida albicans; 4 × MIC, 6 h) was 4.53 Log10 CFU/mL, the “Viable counts in Log10 CFU/mL” value (Candida albicans; 4 × MIC, 24 h) was <1 Log10 CFU/mL and the “Viable counts in Log10 CFU/mL” value (Candida albicans; 4 × MIC, 0 h) was 5.69 Log10 CFU/mL. The “Viable counts in Log10 CFU/mL” value (Aspergillus niger; 1 × MIC, 1 h) was 5.53 Log10 CFU/mL, the “Viable counts in Log10 CFU/mL” value (Aspergillus niger; 1 × MIC, 2 h) was 5.51 Log10 CFU/mL and the “Viable counts in Log10 CFU/mL” value (Aspergillus niger; 1 × MIC, 4 h) was 5.15 Log10 CFU/mL. For the same molecule, the “Viable counts in Log10 CFU/mL” value (Aspergillus niger; 1 × MIC, 6 h) was 4.78 Log10 CFU/mL, the “Viable counts in Log10 CFU/mL” value (Aspergillus niger; 1 × MIC, 24 h) was 4 Log10 CFU/mL and the “Viable counts in Log10 CFU/mL” value (Aspergillus niger; 1 × MIC, 0 h) was 5.51 Log10 CFU/mL. For the same molecule, the “Viable counts in Log10 CFU/mL” value (Aspergillus niger; 2 × MIC, 1 h) was 5.48 Log10 CFU/mL, the “Viable counts in Log10 CFU/mL” value (Aspergillus niger; 2 × MIC, 2 h) was 5.57 Log10 CFU/mL and the “Viable counts in Log10 CFU/mL” value (Aspergillus niger; 2 × MIC, 4 h) was 5.08 Log10 CFU/mL. For the same molecule, the “Viable counts in Log10 CFU/mL” value (Aspergillus niger; 2 × MIC, 6 h) was 5.38 Log10 CFU/mL, the “Viable counts in Log10 CFU/mL” value (Aspergillus niger; 2 × MIC, 24 h) was 5.58 Log10 CFU/mL and the “Viable counts in Log10 CFU/mL” value (Aspergillus niger; 2 × MIC, 0 h) was 5.49 Log10 CFU/mL. The “Viable counts in Log10 CFU/mL” value (Aspergillus niger; 4 × MIC, 1 h) was 5.49 Log10 CFU/mL, the “Viable counts in Log10 CFU/mL” value (Aspergillus niger; 4 × MIC, 2 h) was 5.49 Log10 CFU/mL and the “Viable counts in Log10 CFU/mL” value (Aspergillus niger; 4 × MIC, 4 h) was 5.00 Log10 CFU/mL. For the same molecule, the “Viable counts in Log10 CFU/mL” value (Aspergillus niger; 4 × MIC, 6 h) was 5.20 Log10 CFU/mL, the “Viable counts in Log10 CFU/mL” value (Aspergillus niger; 4 × MIC, 24 h) was 3.85 Log10 CFU/mL and the “Viable counts in Log10 CFU/mL” value (Aspergillus niger; 4 × MIC, 0 h) was 5.56 Log10 CFU/mL. For the same molecule, the “Viable counts, Pseudomonas aeruginosa time kill study” value (Pseudomonas aeruginosa; 1 × MIC, 1 h) was <1 Log10 CFU/mL, the “Viable counts, Pseudomonas aeruginosa time kill study” value (Pseudomonas aeruginosa; 1 × MIC, 2 h) was <1 Log10 CFU/mL and the “Viable counts, Pseudomonas aeruginosa time kill study” value (Pseudomonas aeruginosa; 1 × MIC, 4 h) was <1 Log10 CFU/mL. The “Viable counts, Pseudomonas aeruginosa time kill study” value (Pseudomonas aeruginosa; 1 × MIC, 6 h) was <1 Log10 CFU/mL, the “Viable counts, Pseudomonas aeruginosa time kill study” value (Pseudomonas aeruginosa; 1 × MIC, 24 h) was <1 Log10 CFU/mL and the “Viable counts, Pseudomonas aeruginosa time kill study” value (Pseudomonas aeruginosa; 1×MIC, time 0) was 5.20 Log10 CFU/mL. The “Viable counts, Pseudomonas aeruginosa time kill study” value (Pseudomonas aeruginosa; 2 × MIC, 1 h) was <1 Log10 CFU/mL, the “Viable counts, Pseudomonas aeruginosa time kill study” value (Pseudomonas aeruginosa; 2 × MIC, 2 h) was <1 Log10 CFU/mL and the “Viable counts, Pseudomonas aeruginosa time kill study” value (Pseudomonas aeruginosa; 2 × MIC, 4 h) was <1 Log10 CFU/mL. For the same molecule, the “Viable counts, Pseudomonas aeruginosa time kill study” value (Pseudomonas aeruginosa; 2 × MIC, 6 h) was <1 Log10 CFU/mL, the “Viable counts, Pseudomonas aeruginosa time kill study” value (Pseudomonas aeruginosa; 2 × MIC, 24 h) was <1 Log10 CFU/mL and the “Viable counts, Pseudomonas aeruginosa time kill study” value (Pseudomonas aeruginosa; 2 × MIC, time 0) was 5.25 Log10 CFU/mL. The “Viable counts, Pseudomonas aeruginosa time kill study” value (Pseudomonas aeruginosa; 4 × MIC, 1 h) was <1 Log10 CFU/mL, the “Viable counts, Pseudomonas aeruginosa time kill study” value (Pseudomonas aeruginosa; 4 × MIC, 2 h) was <1 Log10 CFU/mL and the “Viable counts, Pseudomonas aeruginosa time kill study” value (Pseudomonas aeruginosa; 4 × MIC, 4 h) was <1 Log10 CFU/mL. For the same molecule, the “Viable counts, Pseudomonas aeruginosa time kill study” value (Pseudomonas aeruginosa; 4 × MIC, 6 h) was <1 Log10 CFU/mL, the “Viable counts, Pseudomonas aeruginosa time kill study” value (Pseudomonas aeruginosa; 4 × MIC, 24 h) was <1 Log10 CFU/mL and the “Viable counts, Pseudomonas aeruginosa time kill study” value (Pseudomonas aeruginosa; 4 × MIC, time 0) was 5.23 Log10 CFU/mL. The “Viable counts, Staphylococcus aureus time kill study” value (Staphylococcus aureus; 1 × MIC, 1 h) was 6.00 Log10 CFU/mL, the “Viable counts, Staphylococcus aureus time kill study” value (Staphylococcus aureus; 1 × MIC, 2 h) was 5.66 Log10 CFU/mL and the “Viable counts, Staphylococcus aureus time kill study” value (Staphylococcus aureus; 1 × MIC, 4 h) was 4.70 Log10 CFU/mL. For the same molecule, the “Viable counts, Staphylococcus aureus time kill study” value (Staphylococcus aureus; 1 × MIC, 6 h) was 4.48 Log10 CFU/mL, the “Viable counts, Staphylococcus aureus time kill study” value (Staphylococcus aureus; 1 × MIC, 24 h) was <1 Log10 CFU/mL and the “Viable counts, Staphylococcus aureus time kill study” value (Staphylococcus aureus; 1×MIC, time 0) was 6.23 Log10 CFU/mL. For the same molecule, the “Viable counts, Staphylococcus aureus time kill study” value (Staphylococcus aureus; 2 × MIC, 1 h) was 5.30 Log10 CFU/mL, the “Viable counts, Staphylococcus aureus time kill study” value (Staphylococcus aureus; 2 × MIC, 2 h) was <3 Log10 CFU/mL and the “Viable counts, Staphylococcus aureus time kill study” value (Staphylococcus aureus; 2 × MIC, 4 h) was <3 Log10 CFU/mL. The “Viable counts, Staphylococcus aureus time kill study” value (Staphylococcus aureus; 2 × MIC, 6 h) was <3 Log10 CFU/mL, the “Viable counts, Staphylococcus aureus time kill study” value (Staphylococcus aureus; 2 × MIC, 24 h) was <1 Log10 CFU/mL and the “Viable counts, Staphylococcus aureus time kill study” value (Staphylococcus aureus; 2 × MIC, time 0) was 6.25 Log10 CFU/mL. The “Viable counts, Staphylococcus aureus time kill study” value (Staphylococcus aureus; 4 × MIC, 1 h) was 5.30 Log10 CFU/mL, the “Viable counts, Staphylococcus aureus time kill study” value (Staphylococcus aureus; 4 × MIC, 2 h) was <3 Log10 CFU/mL and the “Viable counts, Staphylococcus aureus time kill study” value (Staphylococcus aureus; 4 × MIC, 4 h) was <3 Log10 CFU/mL. The “Viable counts, Staphylococcus aureus time kill study” value (Staphylococcus aureus; 4 × MIC, 6 h) was <3 Log10 CFU/mL, the “Viable counts, Staphylococcus aureus time kill study” value (Staphylococcus aureus; 4 × MIC, 24 h) was <1 Log10 CFU/mL and the “Viable counts, Staphylococcus aureus time kill study” value (Staphylococcus aureus; 4 × MIC, time 0) was 6.20 Log10 CFU/mL.
